Measured values reported in US20070289889A1, “Biomarkers For The Prediction Of Drug-In Duced Diarrhea” (NOVARTIS AG, priority 2003, published 2007).
Several values for one entry are separate records, joined by “and”; a condition that tells them apart may be missing. Equal entries are not always repeated.

Assays:
[1] = test system: white blood cells; assay: mRNA expression profiles of white blood cells after treatment, no diarrhoea vs. diarrhoea subjects; type: in vivo, human; details: treated; for Signal Value 297_g_at (Tubulin, beta) / Signal Value 477_at (IRF5) / Signal Value 1274_s_at (CDC34) / Signal Value 33336_at (SLC4A1) / Signal Value 33759_at (BPGM) / Signal Value 37285_at (ALAS2) / Signal Value 37405_at (SELENBP1) / Signal Value 39436_at (BNIP3L): average of arrays
Protocol: Samples. Forty-three out of the ninety-one subjects who enrolled in the clinical trial consented to clinical pharmacogenetics analysis. For each subject, two clinical pharmacogenetics blood samples were scheduled: baseline and on Day 2 of Week 1 at hour 24. White blood cell (WBC) pellets were ficoll-hypaque separated from the whole blood by the investigator, frozen at −80° C. mRNA was extracted and profiled on the Affymetrix U95A GeneChip® platform.
mRNA expression profiling analysis. Any array with greater than 20% of genes called present by the Affymetrix MAS5 algorithm was a candidate for the analyses described herein. Affymetrix, “New statistical algorithms for monitoring gene expression on GeneChip® probe arrays.” Affymetrix Technical Notes. (2001). […] Forty-two out of the possible eighty-six arrays met the quality standards needed for analysis.
Statistical analysis. Fisher's Exact tests were performed to compare the demographics of the clinical pharmacogenetics participants to the overall trial population. An analysis of variance (ANOVA) was used to determine whether mRNA gene expression patterns correlated to either treatment status (baseline vs. treated), to experiencing diarrhoea (no diarrhoea vs. diarrhoea) or to whether specific blood cell type levels correlated to experiencing diarrhoea. All statistical analyses were performed using the SigmaStat 2.03 and SAS 8.02 programs.
(§1) Because there were only three subjects who experienced grade 3 diarrhoea, all fifteen subjects who experienced any grade of diarrhoea were grouped together to strengthen the statistical power of this analysis.
A comparison of the mRNA expression profiles of white blood cells identified eight genes with statistically significant differences between the two groups of subjects 24 hours after epothilone B administration. See, TABLE 3.
Compare, TABLE 8 and TABLE 13.

[2] = test system: adult patients with advanced solid tumours; assay: Phase I open-label dose-escalation trial, maximum tolerated dose and diarrhoea; type: in vivo, human
Protocol: A group of eleven genes were identified as having statistically significant differences in expression levels when comparing the test samples to their respective baseline samples. […] These genes were identified following a […] dose-finding clinical trial, which was undertaken in which epothilone B was administered weekly to adult patients with advanced solid tumours. A clinical pharmacogenetics (CPG) analysis identified biomarker candidates for the incidence of epothilone B-induced diarrhoea. The analysis also identified genomic-based factors (such as mRNA expression profiles) that are associated with the incidence of epothilone B-induced diarrhoea.
The maximum tolerated dose (MTD) for a compound is determined using methods and materials known in the medical and pharmacological arts, for example through dose-escalation experiments. One or more patients is first treated with a low dose of the compound, typically 10% of the dose anticipated to be therapeutic based on results of in vitro cell culture experiments. The patients are observed for a period of time to determine the occurrence of toxicity. Toxicity is typically evidenced as the observation of one or more of the following symptoms: vomiting, diarrhoea, peripheral neuropathy, ataxia, neutropaenia, or elevation of liver enzymes. If no toxicity is observed, the dose is increased 2-fold, and the patients are again observed for evidence of toxicity. This cycle is repeated until a dose producing evidence of toxicity is reached. The dose immediately preceding the onset of unacceptable toxicity is taken as the […]. A determination of the MTD for epothilone B is provided above.
Clinical trial design. This clinical trial was an open-label, dose-escalation trial using a standard Phase I protocol design (3+3 design) of enrolling three-six patients per cohort to establish the maximum tolerated dose. Peripheral whole blood was collected from patients that consented to clinical pharmacogenetics analysis. Two clinical pharmacogenetics blood samples were scheduled: baseline and on Day 2 of Week 1 at hour 24. The core treatment period consisted of two nine-week cycles of weekly intravenous administrations of epothilone B as tolerated by haematologic and other toxicities. The doses of epothilone B used in this trial were 0.3, 0.5, 0.75, 1.1, 1.85, 2.5, 3.0 and 3.6 mg/m^2.
Clinical pharmacogenetics subjects used for the analysis. Epothilone B was administered to subjects as a single intravenous infusion over five minutes in a maximum volume of 20 ml either every week for up to six weeks followed by a three-week wash-out period, or every week for three weeks followed by one week without treatment. The 2.5 mg/m^2 treatment was considered to be the maximum tolerated dose (MTD). Therefore, twenty clinical pharmacogenetics participants who were in the 2.5, 3.0 and 3.6 mg/m^2 treatment groups and whose arrays met the quality standards were used. The rationale behind this decision was based on the assumption that those genes whose expression was affected by the 2.5 mg/m^2 treatment would be more pronounced in 3.0 and 3.6 mg/m^2 treatment groups.
as §1

[3] = 24 hours, any grade of diarrhoea
[4] = CPG subjects, grade 1 diarrhoea
[5] = of twenty CPG subjects, 2.5, 3.0 and 3.6 mg/m^2, irregardless of dose

In the case of `C/C(=C\c1csc(C)n1)[C@@H]1C[C@@H]2O[C@]2(C)CCC[C@H](C)[C@H](O)[C@@H](C)C(=O)C(C)(C)[C@@H](O)CC(=O)O1` [epothilone B, Epothilone B], the “Fold Change [diarrhoea/no diarrhoea] ALAS2 (37285_at) mRNA” value [1, 3] was −9.6, the “Fold Change [diarrhoea/no diarrhoea] BNIP3L (39436_at) mRNA” value [1, 3] was −2.8 and the “Fold Change [diarrhoea/no diarrhoea] BPGM (33759_at) mRNA” value [1, 3] was −4.9. For the same compound, the “Fold Change [diarrhoea/no diarrhoea] CDC34 (1274_s_at) mRNA” value [1, 3] was −2.2, the “Fold Change [diarrhoea/no diarrhoea] IRF5 (477_at) mRNA” value [1, 3] was 2.9 and the “Fold Change [diarrhoea/no diarrhoea] SELENBP1 (37405_at) mRNA” value [1, 3] was −11.3. For the same compound, the “Fold Change [diarrhoea/no diarrhoea] SLC4A1 (33336_at) mRNA” value [1, 3] was −15.3, the “Fold Change [diarrhoea/no diarrhoea] Tubulin, beta (297_g_at) mRNA” value [1, 3] was −3.9 and the “Signal Value 297_g_at (Tubulin, beta)” value ([1]; Diarrhoea (any grade) subjects) was 59. For the same compound, the “Signal Value 477_at (IRF5)” value ([1]; Diarrhoea (any grade) subjects) was 278, the “Signal Value 1274_s_at (CDC34)” value ([1]; Diarrhoea (any grade) subjects) was 128 and the “Signal Value 33336_at (SLC4A1)” value ([1]; Diarrhoea (any grade) subjects) was 93. For the same compound, the “Signal Value 33759_at (BPGM)” value ([1]; Diarrhoea (any grade) subjects) was 70, the “Signal Value 37285_at (ALAS2)” value ([1]; Diarrhoea (any grade) subjects) was 448 and the “Signal Value 37405_at (SELENBP1)” value ([1]; Diarrhoea (any grade) subjects) was 106. The “Signal Value 39436_at (BNIP3L)” value ([1]; Diarrhoea (any grade) subjects) was 1476, the “Signal Value 297_g_at (Tubulin, beta)” value ([1]; No Diarrhoea subjects) was 232 and the “Signal Value 477_at (IRF5)” value ([1]; No Diarrhoea subjects) was 97. For the same compound, the “Signal Value 1274_s_at (CDC34)” value ([1]; No Diarrhoea subjects) was 278, the “Signal Value 33336_at (SLC4A1)” value ([1]; No Diarrhoea subjects) was 1421 and 1422 and the “Signal Value 33759_at (BPGM)” value ([1]; No Diarrhoea subjects) was 344. The “Signal Value 37285_at (ALAS2)” value ([1]; No Diarrhoea subjects) was 4292, the “Signal Value 37405_at (SELENBP1)” value ([1]; No Diarrhoea subjects) was 1200 and the “Signal Value 39436_at (BNIP3L)” value ([1]; No Diarrhoea subjects) was 4200. For the same compound, the “Fold Change [diarrhoea/no diarrhoea] 297_g_at (Tubulin, beta)” value ([1]; grade 3 diarrhoea) was −3.0, the “Fold Change [diarrhoea/no diarrhoea] 477_at (IRF5)” value ([1]; grade 3 diarrhoea) was “^f2.7” and the “Fold Change [diarrhoea/no diarrhoea] 1274_s_at (CDC34)” value ([1]; grade 3 diarrhoea) was −2.3. The “Fold Change [diarrhoea/no diarrhoea] 33336_at (SLC4A1)” value ([1]; grade 3 diarrhoea) was −15.9, the “Fold Change [diarrhoea/no diarrhoea] 33759_at (BPGM)” value ([1]; grade 3 diarrhoea) was “^f−6.7” and the “Fold Change [diarrhoea/no diarrhoea] 37285_at (ALAS2)” value ([1]; grade 3 diarrhoea) was −10.0. For the same compound, the “Fold Change [diarrhoea/no diarrhoea] 37405_at (SELENBP1)” value ([1]; grade 3 diarrhoea) was “^f−10.3”, the “Fold Change [diarrhoea/no diarrhoea] 39436_at (BNIP3L)” value ([1]; grade 3 diarrhoea) was −2.8 and the “Signal Value 297_g_at (Tubulin, beta)” value ([1]; grade 3 diarrhoea subjects) was 77. The “Signal Value 477_at (IRF5)” value ([1]; grade 3 diarrhoea subjects) was 264, the “Signal Value 1274_s_at (CDC34)” value ([1]; grade 3 diarrhoea subjects) was 123 and the “Signal Value 33336_at (SLC4A1)” value ([1]; grade 3 diarrhoea subjects) was 90. The “Signal Value 33759_at (BPGM)” value ([1]; grade 3 diarrhoea subjects) was 51, the “Signal Value 37285_at (ALAS2)” value ([1]; grade 3 diarrhoea subjects) was 428 and the “Signal Value 37405_at (SELENBP1)” value ([1]; grade 3 diarrhoea subjects) was 113. The “Signal Value 39436_at (BNIP3L)” value ([1]; grade 3 diarrhoea subjects) was 1489, the “mean time of experiencing the first episode of diarrhoea after receiving dose” value ([2]; CPG subjects) was 37 days and the “maximum time to first episode of diarrhoea” value [2, 4] was 304 days. For the same compound, the “minimum time to first episode of diarrhoea” value [2, 4] was 6 days, the “mean onset of diarrhoea after the scheduled blood draw” value ([2]; clinical pharmacogenetics (CPG) subjects) was 371 ± 18 days and the “subjects who experienced grade 3 diarrhoea” value ([2]; of twenty CPG subjects, 2.5, 3.0 and 3.6 mg/m^2) was “three”. The “subjects who did not experience diarrhoea” value [2, 5] was “five”, the “subjects who experienced any grade of diarrhoea” value [2, 5] was “fifteen” and the “maximum tolerated dose (MTD)” value ([2]; weekly intravenous infusion over five minutes) was 2.5 mg/m^2.
